Tests used:
Assay type in all cases: biochemical, Numidum massiliense
[1] = tested on: three-mutation introduced D-type amino acid dehydrogenase (Thr174Ile, Arg184Met, His230Asn); test: D-amino acid synthesis activity, three-mutation enzyme; details: 5 mM 2-oxo acid, 200 mM ammonium chloride, pH 9.5, 50° C.; for D-amino acid synthesis activity (specific activity), Three-mutation enzyme, NADH: 0.1 mM NADH; for D-amino acid synthesis activity (specific activity), Three-mutation enzyme, NADPH: 0.1 mM NADPH
Description: DNA encoding polypeptide in which three types of mutations (Thr174Ile, Arg184Met, and His230Asn) were introduced into the amino acid sequence of D-type amino acid dehydrogenase derived from N. massiliense was obtained by synthesis. This was cleaved with restriction enzymes NdeI and EcoRI, separated by agarose gel electrophoresis, and then extracted and purified from the gel. DNA fragments after a restriction enzyme treatment were incorporated into restriction enzyme sites (NdeI and EcoRI) of pET-21a(+) (available from Novagen) of a plasmid for protein expression by a ligation reaction to construct an expression vector that retains three-mutation introduced D-type amino acid dehydrogenase gene. The expression vector was constructed such that the three-mutation introduced D-type amino acid dehydrogenase gene was incorporated into downstream of the T7 promoter and the […] binding site, and upstream of the T7 terminator.
(§1) The activity of the enzyme was measured by determining a decrease in absorbance at wavelength of 340 nm of NADPH or NADH produced by the catalytic reaction of the enzyme. […] The absorbance was measured by an ultraviolet-visible spectrophotometer UV-1800 (available from SHIMADZU).

[2] = tested on: D-type amino acid dehydrogenase derived from N. massiliense (wild type); test: D-amino acid synthesis activity, wild type enzyme; details: 5 mM 2-oxo acid, 200 mM ammonium chloride, pH 9.5, 50° C.; for D-amino acid synthesis activity (specific activity), Wild type, NADH: 0.1 mM NADH; for D-amino acid synthesis activity (specific activity), Wild type, NADPH: 0.1 mM NADPH
Method: as §1

[3] = tested on: six-mutation introduced D-type amino acid dehydrogenase (Asp95Ser, Met155Leu, Val159Gly, Thr174Ile, Arg184Met, His230Asn); test: D-amino acid synthesis activity, six-mutation enzyme; details: 5 mM 2-oxo acid, 200 mM ammonium chloride, pH 9.5, 50° C.; for D-amino acid synthesis activity (specific activity), Six-mutation enzyme, NADH: 0.1 mM NADH; for D-amino acid synthesis activity (specific activity), Six-mutation enzyme, NADPH: 0.1 mM NADPH
Method: DNA encoding polypeptide into which six types of mutations (Asp95Ser, Met155Leu, Val159Gly, Thr174Ile, Arg184Met, and His230Asn) were introduced into the amino acid sequence of D-type amino acid dehydrogenase derived from N. massiliense was obtained by synthesis. An expression vector that retains the six-mutation introduced D-type amino acid dehydrogenase gene was further constructed in the same manner as described above.
as §1

[4] = tested on: five-mutation introduced D-type amino acid dehydrogenase (Met155Leu, Val159Gly, Thr174Ile, Arg184Met, His230Asn); test: D-amino acid synthesis activity, five-mutation enzyme; details: 5 mM 2-oxo acid, 200 mM ammonium chloride, pH 9.5, 50° C.; for D-amino acid synthesis activity (specific activity), Five-mutation enzyme, NADH: 0.1 mM NADH; for D-amino acid synthesis activity (specific activity), Five-mutation enzyme, NADPH: 0.1 mM NADPH
Method: In order to prepare a gene for a mutant enzyme in which five types of mutations (Met155Leu, Val159Gly, Thr174Ile, Arg184Met, and His230Asn) are introduced into the D-type amino acid dehydrogenase derived from N. massiliense, the six mutation-introduced D-type amino acid dehydrogenase/pET-21a(+) prepared above was used as a template to prepare the expression vector by PCR using “PrimeSTAR Max DNA Polymerase” available from Takara Bio Inc. PCR was performed according to the manufacturer's protocol. A PCR reaction solution was prepared by containing 0.3 μM of each of the following primers and 50 ng of templet DNA as described above.
as §1

Structure (SMILES)	D-amino acid synthesis activity (specific activity), Three-mutation enzyme, NADH [1]	D-amino acid synthesis activity (specific activity), Three-mutation enzyme, NADPH [1]	D-amino acid synthesis activity (specific activity), Wild type, NADH [2]	D-amino acid synthesis activity (specific activity), Wild type, NADPH [2] [µmol/min/mg]	D-amino acid synthesis activity (specific activity), Six-mutation enzyme, NADH [3]	D-amino acid synthesis activity (specific activity), Six-mutation enzyme, NADPH [3]	D-amino acid synthesis activity (specific activity), Five-mutation enzyme, NADH [4]	D-amino acid synthesis activity (specific activity), Five-mutation enzyme, NADPH [4]
CC(C)C(=O)C(=O)O [2-oxo-3-methylbutanoic acid]	0.043 µmol/min/mg	2.5 µmol/min/mg	0.0012 µmol/min/mg	0.26	No	0.051 µmol/min/mg	0.018 µmol/min/mg	2.4 µmol/min/mg
CCC(C)C(=O)C(=O)O (centres unmarked) [2-oxo-3-methylpentanoic acid]	0.043 µmol/min/mg	4.7 µmol/min/mg	No	0.18	0.0030 µmol/min/mg	0.23 µmol/min/mg	0.025 µmol/min/mg	4.0 µmol/min/mg
O=C(O)C(=O)Cc1ccccc1 [2-oxo-3-phenylpropanoic acid]	0.028 µmol/min/mg	1.5 µmol/min/mg	0.011 µmol/min/mg	1.5	0.018 µmol/min/mg	2.1 µmol/min/mg	0.012 µmol/min/mg	2.7 µmol/min/mg
CSCCC(=O)C(=O)O [2-oxo-4-(methylthio)butanoic acid]	0.013 µmol/min/mg	5.2 µmol/min/mg	No	2.0	0.024 µmol/min/mg	2.8 µmol/min/mg	0.069 µmol/min/mg	12.3 µmol/min/mg
CC(C)CC(=O)C(=O)O [2-oxo-4-methylpentanoic acid]	0.044 µmol/min/mg	4.6 µmol/min/mg	No	0.803	0.011 µmol/min/mg	1.2 µmol/min/mg	0.055 µmol/min/mg	9.0 µmol/min/mg
O=C(O)CC(=O)C(=O)O [2-oxobutanedioic acid]	0.12 µmol/min/mg	2.0 µmol/min/mg	0.13 µmol/min/mg	5.2	0.14 µmol/min/mg	0.44 µmol/min/mg	0.25 µmol/min/mg	0.39 µmol/min/mg
CCC(=O)C(=O)O [2-oxobutanoic acid]	0.028 µmol/min/mg	2.2 µmol/min/mg	0.011 µmol/min/mg	1.4	0.0011 µmol/min/mg	0.027 µmol/min/mg	0.014 µmol/min/mg	1.6 µmol/min/mg
O=C(O)CCC(=O)C(=O)O [2-oxoglutaric acid]	No	No	No	0.11	No	No	No	No
CCCCCCC(=O)C(=O)O [2-oxooctanoic acid]	0.039 µmol/min/mg	8.2 µmol/min/mg	No	5.8	1.0 µmol/min/mg	9.0 µmol/min/mg	0.050 µmol/min/mg	11.2 µmol/min/mg
CC(=O)C(=O)O [2-oxopropanoic acid]	0.000 µmol/min/mg	2.2 µmol/min/mg	0.13 µmol/min/mg	4.7	0.12 µmol/min/mg	0.0070 µmol/min/mg	0.046 µmol/min/mg	0.30 µmol/min/mg

Source: US10927354B2, “D-type amino acid dehydrogenase” (Kureha Corporation, priority 2017, dated 2021)
